Test results reported in patent US11718645B2, “Macrocyclic therapeutic agents, methods of manufacture, and methods of treatment” (University of Florida Research Foundation, Incorporated, priority 2014, dated 2023).

Experiments:
[1] = Cellular stability in HCT116 cell lysate; type: in vitro ADME, human; details: HCT116 protein lysate 0.7 mg/mL, up to 24 h, FIG. 2D
Experimental: Aliquots of HCT116 cell lysates were diluted with 25 mM Tris-HCl buffer, pH 8.0, to give a final reaction volume of 100 μL and protein concentration of 0.7 mg/mL. Cell lysate solutions were incubated with 10 μL of apratoxin A, BK, BL, BM, or BN (25 μg/mL) for 0.25 min to 24 h (nine time points). Remaining apratoxin A, BK, BL, BM, or BN were extracted from the reaction solution at the end of the incubation periods with ethyl acetate using the same procedure as described for the plasma stability assay.
(§1) Analysis of apratoxin A, S4 (BK), S7 (BL), S8 (BM) and S9 (BN) was done by using HPLC-MS [column, Onyx Monolithic C18 (3.0×100 mm), Phenomenex (Torrance, Calif.); solvent, water (solvent A) acetonitrile (solvent B); flow rate, 0.5 ml/min; detection by electrospray ionization-MS in positive ion mode (MRM scan)]. A stepwise gradient elution was used starting at 60% B and 40% A, then increasing to 80% B at 5 min and maintained at this condition for 5 min. Parameters were optimized before analysis by using direct syringe infusion. The retention times (tR, min; MRM ion pair) of the analytes and internal standard are as follows: harmine (2.2; 213.1→169.9), apratoxin A (4.7; 841.4→445.2), apratoxin S4 (BK) (4.1; 828.5→432.2), apratoxin S7 (BL) (4.05; 814.5→418.2), apratoxin S8 (BM) (5.2; 842.5→446.2), apratoxin S9 (BN) (4.9; 828.5→432.2). Compound-dependent parameters used were as follows: apratoxin A, declustering potential (DP) 51, entrance potential (EP) 12, collision energy (CE) 45, collision cell exit potential (CXP) 6, collision cell entrance potential (CEP) 32; and harmine, DP 56.0, EP 4.5, CE 44.0, CXP 5, CEP 16.0. Source gas parameters used were as follows: curtain gas, 15.0; collision gas low, ionspray voltage 5500; temperature, 600.0; ion source gas 150.0; ion source gas 2 60.0.
(§2) Calibration curves for apratoxin A, S4 (BK), S7 (BL), S8 (BM) and S9 (BN) in the presence of mouse serum, HCT116 cell lysates, and aqueous solutions were generated by least-square linear regression analysis of the analyte peak area and internal standard peak area ratio against the nominal concentration of the standard solutions. A linear regression analysis was performed, and the concentration of remaining apratoxins at each time point was determined through interpolation for plasma, cellular, and aqueous stability experiments. The amount of remaining apratoxins with microsome incubation was determined from the peak area ratio of apratoxins at tx (3 min to 3 h) and t0. All calculations were done by using Analyst 1.4.2 (Applied Biosystems) Quantitate Mode.

HCT116 cells = assay: Cell viability assay (MTT); type: cell-based, human; details: determined after 48 h (n = 4)
Experimental: (§3) Human colon adenocarcinoma HCT116 cells were purchased from ATCC (Manassas, Va.) and cultured in Dulbecco's modified Eagle's medium (Invitrogen, Carlsbad, Calif.) supplemented with 10% fetal bovine serum (HyClone, Logan, Utah) at 37° C. humidified air and 5% CO2.
HCT116 cells were seeded at a density of 1×10^4 cells per well in 96-well plates. 24 h later the cells were treated with various concentrations of apratoxins or solvent control. After 48 h of incubation, cell viability was detected using MTT according to the manufacturer's instructions (Promega, Madison, Wis.).

Microsomal stability = type: in vitro ADME, mouse
Experimental: HPLC-MS was done on a 3200 QTRAP (Applied Biosystems) equipped with a Shimadzu (Kyoto, Japan) UFLC System. Mouse serum and harmine were purchased from Sigma-Aldrich. Pooled CD1 mouse liver (female) microsomes were purchased from XenoTech, LCC (Lenexa, Kans.) with protein concentrations of 0.5 mg/ml. HCT116 cell lysates were prepared with PhosphoSafe lysis buffer (Novagen). Protein concentration was determined by using the BCA Assay. Analysis was carried out similarly as previously described [Liu, Y.; Salvador, L. A.; Byeon, S.; Ying, Y.; Kwan, J. C.; Law, B. K.; Hong, J.; Luesch. H. J. Pharmacol. Exp. Ther. 2010, 335, 351-361].
The stability of apratoxin A, S4 (BK), S7 (BL), S8 (BM) and S9 (BN) in the presence of mouse microsomes was determined by using an adaptation of a published procedure [Ackley, D. C.; Rockich, K. T.; Baker, T. R. Optimization in Drug Discovery: In Vitro Methods (Series: Methods in Pharmacology and Toxicology) (eds Yan Z, Caldwell J W) 2004, pp 151-162, Springer, New Jersey]. In brief, microsomes were added to prewarmed phosphate buffer (100 mM, pH 7.4) at 37° C. Apratoxin A, BK, BL, BM, or BN (3 μL) were added to the microsomal preparation followed by NADPH cofactor solution (1.3 mM NADP, 3.3 mM glucose 6-phosphate, 0.4 U/mL glucose-6-phosphate dehydrogenase, 3.3 mM MgCl2). The reaction was allowed to proceed for 3 min to 3 h (7 time points) at 37° C. (thermomixer, 1050 rpm). The reaction was quenched by addition of ethyl acetate and subsequently spiked with harmine. The zero time point was defined by denaturing the microsomes with ethyl acetate before the addition of apratoxins. Incubation of apratoxins with microsomes alone was also performed following the same procedure to determine NADPH-dependent metabolism. The final concentration of the incubation mixture contained 0.5 mg/ml protein concentration and 1 μM apratoxins.
as §1, §2

[2] = Plasma stability in mouse serum; type: in vitro ADME; details: up to 24 h, FIG. 2C
Experimental: In vitro plasma stability of apratoxin A, S4 (BK), S7 (BL), S8 (BM) and S9 (BN) was done by using a modification of a published method [Chen, X.; Gardner, E. R.; Figg, W. D. J. Chromatogr. B Analyt. Technol. Biomed. Life Sci. 2008, 86, 153-158]. Ten microliters of apratoxin A, BK, BL, BM, or BN (25 μg/mL) were added to 100 μL of mouse serum, and the solution was vortex-mixed for 15 s and incubated for 0.25 min to 24 h (11 time points). At the end of each incubation period, 400 μL of ethyl acetate was added to each tube, followed by 200 μL of harmine to quench the reaction and to extract the remaining apratoxin A or S4 (BK), S7 (BL), S8 (BM) and S9 (BN). Samples were further incubated in a thermomixer at 27° C. (750 rpm, 5 min) and later centrifuged for 5 min at 1643 g. The ethyl acetate layer was collected and evaporated to dryness under nitrogen. Samples were reconstituted in 50 μL of acetonitrile. A volume of 10 μL of the reconstituted solution was injected into the HPLC-MS system.
as §1, with “Compound-dependent parameters used were as follows: apratoxin A, declustering potential (DP) 51, entrance potential (EP) 12, collision energy (CE) 45, collision cell exit potential (CXP) 6, collision cell entrance potential (CEP) 32; and harmine, DP 56.0, EP 4.5, CE 44.0, CXP 5, CEP 16.0. Source gas parameters used were as follows: curtain gas, 15.0; collision gas low, ionspray voltage 5500; temperature, 600.0; ion source gas 150.0; ion source gas 2 60.0.” left out
as §2

HCT116 xenograft = details: previous efficacious dose 0.25 mg/kg; cited from earlier work
VEGF-A secretion = assay: Measurement of VEGF-A production (alphaLISA) in HCT116 culture supernatants; type: cell-based, human; details: determined after 12 h (n = 3)
Experimental: as §3
HCT116 cells (1×10^4 cells per well) were seeded in 96-well plates and one day later treated with various concentrations of apratoxins or solvent control. After 12 h of incubation, culture supernatants were collected for detection of VEGF-A by using an alphaLISA kit (PerkinElmer, Waltham, Mass.) following the manufacturer's instructions. Briefly, acceptor bead and anti-VEGF antibody were incubated first with the supernatants for 60 min, donor beads were added later and incubated for another 30 min and then VEGF-A levels detected using Envision (PerkinElmer).

## CC[C@H](C)[C@H]1C(=O)N2CCC[C@H]2C(=O)O[C@H](C(C)(C)C)C[C@@H](C)C[C@H](O)[C@H](C)C2=N[C@@H](CCC(=O)N[C@@H](Cc3ccc(OC)cc3)C(=O)N(C)[C@@H](C)C(=O)N1C)CS2 [apratoxin S4 (BK), Apratoxin S4]
[1]
  cellular stability: excellent
HCT116 cells
  IC50: 1.43 nM
Microsomal stability; microsomes + NADPH, 0 min
  % remaining: 100%
Microsomal stability; microsomes + NADPH, 3 min
  % remaining: 39.55 ± 1.06%
Microsomal stability; microsomes + NADPH, 5 min
  % remaining: 32.20 ± 16.12%
Microsomal stability; microsomes + NADPH, 15 min
  % remaining: 10.07 ± 1.46%
Microsomal stability; microsomes + NADPH, 30 min
  % remaining: 9.58 ± 1.03%
Microsomal stability; microsomes + NADPH, 60 min
  % remaining: 10.00 ± 0.71%
Microsomal stability; microsomes + NADPH, 120 min
  % remaining: 6.02 ± 2.11%
Microsomal stability; microsomes only, 0 min
  % remaining: 100%
Microsomal stability; microsomes only, 3 min
  % remaining: 87.05 ± 1.63%
Microsomal stability; microsomes only, 5 min
  % remaining: 70.80 ± 23.48%
Microsomal stability; microsomes only, 15 min
  % remaining: 87.20 ± 2.83%
Microsomal stability; microsomes only, 30 min
  % remaining: 73.85 ± 15.49%
Microsomal stability; microsomes only, 60 min
  % remaining: 87.10 ± 1.41%
Microsomal stability; microsomes only, 120 min
  % remaining: 55.25 ± 12.09%
[2]
  plasma stability: excellent
HCT116 xenograft
  in vivo activity (previous study): extremely potent and active in vivo
VEGF-A secretion
  IC50: 0.32 nM
